From patent US20160067311A1, “USE OF ELSIGLUTIDE TO TREAT GASTROINTESTINAL MUCOSITIS INCLUDING CHEMOTHERAPY-INDUCED DIARRHEA” (Helsinn Healthcare SA, priority 2014, published 2016)
“Also recorded” adds a separate entry of the source. Read-outs that look alike come from different tables or passages of the source. Peptide text beside a SMILES is read from it.

Key:
[1] = system: patients with colorectal cancer receiving 5-FU based chemotherapy (FOLFOX4 or FOLFIRI regimen); assay: Study TIDE-11-10 safety (treatment-emergent adverse events); type: in vivo, human; settings: elsiglutide group, 69 patients, 24 mg/day s.c. for 4 days
Source text: (§1) In studies TIDE-09-04 and TIDE-11-10 the overall pattern of TEAEs was as expected for patients with cancer receiving chemotherapy. In both studies the safety profiles of elsiglutide and placebo were generally similar. More patients in the elsiglutide group reported TEAEs compared to patients in the placebo group, mostly due to injection site reactions in the elsiglutide group.
(§2) In study TIDE-09-04, out of the 28 treated patients (21 on active treatment and 7 on placebo), 9 (32.1%; 7 patients in elsiglutide group and 2 patients in placebo group) experienced at least one TEAE judged by the investigator to be at least possibly related to treatment. In study TIDE-11-10, out of the 138 treated patients (69 on elsiglutide and 69 on placebo), 8 (11.6%), all in the elsiglutide group, had at least one TEAE judged by the investigator to be at least possibly related to study-drug. The most frequent related TEAEs overall in both studies were injection site events (in particular injection site erythema and injection site pain) followed by constipation.
138 patients received a daily dose of 24 mg elsiglutide (or placebo practically identical in composition to the active study drug) via a single s.c. injection for 4 consecutive days, starting from the first day of chemotherapy administration. […] Safety and tolerability were monitored throughout the study.

[2] = system: healthy volunteers; assay: Study 06-013 dose-escalation, safety, tolerability and MTD, single i.v. or s.c. bolus in healthy subjects; type: in vivo, human
Source text: Thirteen of 27 subjects included in this study experienced at least 1 treatment-emergent adverse event (TEAE) judged by the investigator as having either a possible, probable or definitive relation to the study medication. The most commonly reported related TEAEs being postural dizziness, nausea, and injection site erythema.

[3] = system: citrulline; assay: Study TIDE-11-10 mean blood concentrations of citrulline (biomarker for intestinal integrity); type: in vivo, human
Protocol: (§3) The formulation used in clinical trials is a lyophilized sterile powder for s.c. administration after reconstitution with sterile water for injection. […] This study also included an evaluation of the levels of citrulline, an amino acid mainly produced by enterocytes, a decrease of which is indicative of an intestinal mucosal damage following chemotherapy. […] In addition, safety and tolerability of the administered repeated doses of elsiglutide were evaluated, and the pharmacokinetics (PK) of elsiglutide and its metabolites ZP2242 and ZP2712 were investigated in a subset of patients in each treatment arm.
(§4) In addition, the proportion of patients who were limited concerning self-care Activities of Daily Living (ADL), the number of stools per day, the number of bowel movements accompanied by urgency per day, and the number of episodes of fecal incontinence per day were summarized for Day 1 to Day 14. Mean blood concentrations of citrulline (a biomarker for intestinal integrity, a decrease being indicative of an intestinal mucosal damage following chemotherapy) were summarized by treatment group for baseline, Day 5, and Day 15 including changes compared to baseline.

[4] = system: rats; assay: Preclinical 5-Fluorouracil (5-FU)-induced small intestinal atrophy and diarrhea in rats; settings: 400 nmol/kg
[5] = Clinical pharmacokinetics of elsiglutide and its metabolites (studies 06-013, TIDE-09-04, TIDE-11-10); settings: for dose dependence of pharmacokinetics (Cmax and AUC increases proportional to dose): study TIDE-09-04, s.c. on 4 consecutive days
Protocol: Data on human exposure to elsiglutide generated so far originate from three clinical trials, one performed in healthy subjects (study 06-013) and two in cancer patients (TIDE-09-04, TIDE-11-10). The main objective of the first two studies was the evaluation of the safety, tolerability and maximum tolerated dose (MTD) of ascending elsiglutide doses administered as s.c. (both studies) and i.v. (only study 06-013) bolus injections. In study 06-013 elsiglutide was administered as single i.v. or s.c. bolus, while in study TIDE-09-04 each dose was administered as s.c. bolus on 4 consecutive days. Study TIDE-11-10 was a phase II proof of concept study that mainly evaluated the efficacy of elsiglutide administered as 24 mg daily s.c. bolus injections for 4 consecutive days in preventing CID in patients with colorectal cancer receiving 5-FU based chemotherapy (FOLFOX4 or FOLFIRI regimen). The secondary objectives of all three studies included the evaluation of the pharmacokinetics of elsiglutide and its major metabolites in humans.

[6] = system: patients with colorectal cancer receiving 5-FU based chemotherapy (FOLFOX4 or FOLFIRI regimen); assay: Study TIDE-11-10 phase II proof of concept, prevention of chemotherapy induced diarrhea (CID); type: in vivo, human
Protocol: as §3
Methodology: This was a phase II, multicenter, double-blind, randomized, placebo-controlled, two-stage, proof of concept study with an interim futility analysis in colorectal cancer patients receiving 5-FU-based chemotherapy (FOLFOX4 or FOLFIRI) and administered elsiglutide subcutaneously (s.c.) for 4 consecutive days.
138 patients received a daily dose of 24 mg elsiglutide (or placebo practically identical in composition to the active study drug) via a single s.c. injection for 4 consecutive days, starting from the first day of chemotherapy administration. The patients were hospitalized at least until Day 3. Further visits were scheduled for Days 4, 5 and 15 and for a Follow-up Visit on Day 28-32. Safety and tolerability were monitored throughout the study.
Diagnosis and Main Criteria for Inclusion: Female and male patients of at least 18 years of age with confirmed diagnosis of colorectal cancer and an Eastern Cooperative Oncology
Group (ECOG) performance status ≦2, chemotherapy-naïve, and scheduled to receive a FOLFOX4 or FOLFIRI chemotherapy regimen.
Efficacy: The endpoint of primary interest was: • Number of patients experiencing no diarrhea from Day 1 to Day 14
Secondary endpoints were: • Proportion of patients experiencing grades ≧2 diarrhea at each day from Day 1 to Day 14 according to National Cancer Institute Common Terminology Criteria for Adverse Events (NCI-CTCAE v. 4.03); • Worst grade of diarrhea according to NCI-CTCAE at each day from Day 1 to Day 14; • Time to occurrence of diarrhea, defined as the first day in which a grade ≧1 diarrhea was assessed (from Day 1 to day 14); • Number of days with presence of grade ≧1 diarrhea (from Day 1 to Day 14); • Number of days with presence of grade ≧2 diarrhea (from Day 1 to Day 14); • Number of days with presence of at least one bowel movement accompanied by urgency (from Day 1 to 14); • Number of days with presence of at least one episode of fecal incontinence (from Day 1 to 14); • Proportion of patients who required i.v. fluids due to CID (from Day 1 to 14); • Proportion of patients who required changes to the primary therapy (chemotherapy dose reduction, delay or change to regimen) due to CID as of Day 2, Day 14 and as of Day 28; • Proportion of patients who used rescue medication (i.e. medication used for treatment of diarrhea) from Day 1 to Day 14.
as §4

[7] = system: rats; assay: Preclinical irinotecan-induced diarrhea and intestinal damage in rats
[8] = system: healthy subjects and colon and colorectal cancer patients; assay: Human safety data across the clinical studies (06-013, TIDE-09-04, TIDE-11-10); type: in vivo
Source text: (§5) Safety data in humans are derived from two phase I dose-escalation studies and one phase II study, which included 202 human subjects (36 healthy subjects and 166 colon and colorectal cancer patients receiving 5-FU-based chemotherapy), 117 of whom received active treatment.
as §1

[9] = system: cancer patients receiving 5-FU-based chemotherapy; assay: Study TIDE-09-04 dose-escalation, safety and tolerability, s.c. bolus on 4 consecutive days in cancer patients; type: in vivo, human
Source text: as §5
In the second dose-escalation study (TIDE-09-04) in cancer patients an independent data safety monitoring board supervised the dose escalation process.
as §2

[10] = GLP-2(1-33); DPP IV degradation and renal clearance; cited from earlier work
[11] = Day 1 to Day 14, Full Analysis Set, 24 mg/day, N = 69
[12] = Day 1 to Day 14, Intent-to-treat Set, 24 mg/day, N = 69

CC[C@H](C)[C@H](NC(=O)[C@H](CC(C)C)NC(=O)[C@H](Cc1c[nH]c2ccccc12)NC(=O)[C@H](C)NC(=O)[C@@H](NC(=O)[C@H](Cc1ccccc1)NC(=O)[C@H](CC(=O)O)NC(=O)[C@H](CCCNC(=N)N)NC(=O)[C@H](C)NC(=O)[C@H](C)NC(=O)[C@H](CC(C)C)NC(=O)[C@H](C)NC(=O)[C@H](CC(=O)O)NC(=O)[C@H](CC(C)C)NC(=O)[C@@H](NC(=O)[C@@H](NC(=O)[C@H](CO)NC(=O)[C@H](CC(C)C)NC(=O)[C@H](CCC(=O)O)NC(=O)[C@H](CO)NC(=O)[C@H](CO)NC(=O)[C@H](Cc1ccccc1)NC(=O)[C@H](CO)NC(=O)CNC(=O)[C@H](CCC(=O)O)NC(=O)CNC(=O)[C@@H](N)Cc1c[nH]cn1)[C@@H](C)O)[C@@H](C)CC)[C@@H](C)CC)C(=O)N[C@@H](C)C(=O)N[C@H](C(=O)N[C@@H](CCCCN)C(=O)N[C@H](C(=O)N[C@H](C(=O)N[C@@H](CC(=O)O)C(=O)N[C@@H](CCCCN)C(=O)N[C@@H](CCCCN)C(=O)N[C@@H](CCCCN)C(=O)N[C@@H](CCCCN)C(=O)N[C@@H](CCCCN)C(=O)N[C@@H](CCCCN)C(N)=O)[C@@H](C)O)[C@@H](C)CC)[C@@H](C)O [elsiglutide] (H-HGEGSFSSELSTILDALAARDFIAWLIATKITDKKKKKK-NH2; N-terminus assumed)
patients with at least one TEAE at least possibly related to study-drug (number) [1]: 8 patients
patients with at least one TEAE at least possibly related to study-drug (percentage) [1]: 11.6%
subjects with at least 1 TEAE with possible, probable or definitive relation to study medication ([2]; of 27 subjects, study 06-013): Thirteen
maximum tolerated dose (MTD) i.v. ([2]; single i.v. bolus, healthy volunteers, stopping-rule AE at 19.2 mg i.v.): 9.6 mg
maximum tolerated dose (MTD) s.c. ([2]; single s.c. bolus, healthy volunteers, stopping-rule AE at 6 mg s.c.): 3 mg
change of mean citrulline level between Baseline and Day 5, compared with placebo group ([3]; Baseline to Day 5): less pronounced decrease
Mean citrulline level at Day 15 ([3]; Day 15, elsiglutide group, 24 mg/day on days 1-4): 36.5 µmol/L
Mean citrulline level at baseline ([3]; baseline, elsiglutide group): 33.5 µmol/L
5-Fluorouracil (5-FU)-induced small intestinal atrophy and diarrhea [4]: prevents
body weight loss (5-FU model) [4]: attenuates
mortality (5-FU model) [4]: decreases
half-life ([5]; human, plasma, iv): 0.4 h
bioavailability ([5]; human, plasma, subcutaneous): 0.29
dose dependence of pharmacokinetics (Cmax and AUC increases proportional to dose) [5]: dose independent
effect on the occurrence of grade ≧2 diarrhea ([6]; 24 mg daily s.c. for 4 consecutive days): preventive effect
evidence of efficacy ([6]; 24 mg/day s.c. on 4 consecutive days): some evidence of efficacy
Worst grade of diarrhea NCI-CTCAE v4.03: Grade 0, % [6, 11]: (62.3) %
Worst grade of diarrhea NCI-CTCAE v4.03: Grade 1, % [6, 11]: (30.4) %
Worst grade of diarrhea NCI-CTCAE v4.03: Grade 2, % [6, 11]: (5.8) %
Worst grade of diarrhea NCI-CTCAE v4.03: Grade 3, % [6, 11]: (1.4) %
Worst grade of diarrhea NCI-CTCAE v4.03: Grade <2, % [6, 11]: (92.8) %
Worst grade of diarrhea NCI-CTCAE v4.03: Grade ≧2, % [6, 11]: (7.2) %
Non-responders, % [6, 12]: (37.7) %
Responders (patients experiencing no diarrhea), % [6, 12]: (62.3) %
superiority of elsiglutide over placebo in number of responders ([6]; overall trial, Stage 1 and Stage 2, 69 patients per group): could not be statistically demonstrated
body weight loss and lethality (irinotecan model) [7]: decreases
irinotecan induced severe intestinal damage (histopathological observations) [7]: drastically reduces
severity of irinotecan-induced diarrhea, including late-onset diarrhea [7]: decreases
deaths or SAEs related to the study drug ([8]; all three studies): No deaths or SAEs related to the study drug
serious or severe injection site reactions ([8]; studies TIDE-09-04 and TIDE-11-10): No serious or severe injection site reactions
dose limiting toxicities ([9]; 93 mg/day administered for 4 consecutive days): no dose limiting toxicity; also recorded: no dose limiting toxicities
patients with at least one TEAE at least possibly related to treatment ([9]; elsiglutide group, 21 on active treatment, TIDE-09-04): 7 patients

CC[C@H](C)[C@H](NC(=O)[C@H](CC(C)C)NC(=O)[C@H](Cc1c[nH]c2ccccc12)NC(=O)[C@H](C)NC(=O)[C@@H](NC(=O)[C@H](Cc1ccccc1)NC(=O)[C@H](CC(=O)O)NC(=O)[C@H](CCCNC(=N)N)NC(=O)[C@H](C)NC(=O)[C@H](C)NC(=O)[C@H](CC(C)C)NC(=O)[C@H](C)NC(=O)[C@H](CC(=O)O)NC(=O)[C@H](CC(C)C)NC(=O)[C@@H](NC(=O)[C@@H](NC(=O)[C@H](CO)NC(=O)[C@H](CC(C)C)NC(=O)[C@H](CCC(=O)O)NC(=O)[C@H](CO)NC(=O)[C@H](CO)NC(=O)[C@H](Cc1ccccc1)NC(=O)[C@H](CO)NC(=O)CNC(=O)[C@H](CCC(=O)O)NC(=O)CNC(=O)[C@@H](N)Cc1c[nH]cn1)[C@@H](C)O)[C@@H](C)CC)[C@@H](C)CC)C(=O)N[C@@H](C)C(=O)N[C@H](C(=O)N[C@@H](CCCCN)C(=O)N[C@H](C(=O)N[C@H](C(=O)N[C@@H](CC(=O)O)C(=O)N[C@@H](CCCCN)C(=O)N[C@@H](CCCCN)C(=O)O)[C@@H](C)O)[C@@H](C)CC)[C@@H](C)O [ZP2712] (H-HGEGSFSSELSTILDALAARDFIAWLIATKITDKK-OH; N-terminus assumed)
exposure to metabolite relative to exposure to the parent ZP1846 (elsiglutide) ([5]; Day 1): > 4 fold
half-life ([5]; human, plasma): 6 to 9 h
dose dependence of pharmacokinetics (Cmax and AUC increases proportional to dose) [5]: dose independent

HADGSFSDEMNTILDNLAARDFINWLIQTKITD [GLP-2]
half-life [10]: about 7 minutes
